Source: ChEMBL document CHEMBL3352377, “Discovery of selective and orally bioavailable protein kinase Cθ (PKCθ) inhibitors from a fragment hit” (J Med Chem, 2015)

Legend:
Focal adhesion kinase 1 = Focal adhesion kinase 1 (Homo sapiens, UniProt Q05397); test: Inhibition of FAK (unknown origin) by TR-FRET assay
[1] = molecular target: T1, Protein kinase C theta type (Homo sapiens, UniProt Q04759)
Description: Inhibition of human recombinant PKCtheta expressed in Sf21 cells using Bio-cdc peptide substrate and ATP after 60 mins by time-resolved fluorescence in-vitro kinase assay

[2] = molecular target: T1, Protein kinase C theta type; test: Inhibition of human recombinant PKCtheta by TR-FRET assay
[3] = molecular target: Protein kinase C alpha type (Homo sapiens, UniProt P17252)
Mus musculus [4] = test: Reduction in paw swelling in DBA/J mouse model of glucose 6-phosphate isomerase-induced athritis at 30 mg/kg, po dosed twice daily from day 1 to day 17; assay type: functional
[5] = Permeability from apical to basolateral side in MDCK2-MDR1 cells at pH 7.4; assay type: ADME, cell-based, Canis lupus familiaris, MDCK-II; details: dog, MDCK-MDR1, pH 7.4; read-out: permeability
[6] = Fraction unbound in mouse plasma; assay type: ADME, cell-free
[7] = Plasma concentration in concanavalin A-induced Balb/c mouse at 1 mg/kg, po dosed 2 hrs before concanavalin A challenge; assay type: ADME, organism-based; set-up: dose 1 mg/kg, route oral
[8] = Oral bioavailability in rat at 3 mg/kg; assay type: ADME, organism-based; details: in vivo
[9] = Cmax in mouse at 3 mg/kg, iv or 10 mg/kg, po; assay type: ADME, organism-based; details: in vivo
[10] = Plasma clearance in rat at 1 mg/kg, iv or 3 mg/kg, po; assay type: ADME, organism-based
[11] = Plasma concentration in concanavalin A-induced Balb/c mouse at 3 mg/kg, po dosed 2 hrs before concanavalin A challenge; assay type: ADME, organism-based; set-up: dose 3 mg/kg, route oral
[12] = Oral bioavailability in mouse at 10 mg/kg; assay type: ADME, organism-based; details: in vivo
[13] = Plasma concentration in concanavalin A-induced Balb/c mouse at 10 mg/kg, po dosed 2 hrs before concanavalin A challenge; assay type: ADME, organism-based; set-up: dose 10 mg/kg, route oral
[14] = AUC in mouse at 3 mg/kg, iv or 10 mg/kg, po; assay type: ADME, organism-based; details: plasma
[15] = AUC in rat at 1 mg/kg, iv or 3 mg/kg, po; assay type: ADME, organism-based; details: plasma
[16] = AUC (0 to t) in DBA/J mouse model of glucose 6-phosphate isomerase-induced athritis at 30 mg/kg, po dosed twice daily from day 1 to day 17; assay type: ADME, organism-based; set-up: dose 30 mg/kg, route oral; details: in vivo
[17] = Half life in mouse at 3 mg/kg, iv or 10 mg/kg, po; assay type: ADME, organism-based; details: in vivo
[18] = molecular target: Voltage-gated inwardly rectifying potassium channel KCNH2 (Homo sapiens, UniProt Q12809); test: Inhibition of human ERG
[19] = Unbound intrinsic clearance in rat microsomes; assay type: ADME, Microsome
Mus musculus [20] = test: Reduction in paw swelling in DBA/J mouse model of glucose 6-phosphate isomerase-induced athritis at 10 mg/kg, po dosed twice daily from day 1 to day 17; assay type: functional
[21] = Unbound intrinsic clearance in mouse microsomes; assay type: ADME, Microsome
[22] = Unbound intrinsic clearance in human microsomes; assay type: ADME, Microsome
cells = details: Homo sapiens, T-Blast, 24 h
Description: Inhibition of anti-CD3/anti-CD28 antibody-induced IL2 production in human T-Blast cells after 24 hrs

[23] = Cmax in rat at 1 mg/kg, iv or 3 mg/kg, po; assay type: ADME, organism-based; details: in vivo
[24] = AUC (0 to t) in DBA/J mouse model of glucose 6-phosphate isomerase-induced athritis at 10 mg/kg, po dosed twice daily from day 1 to day 17; assay type: ADME, organism-based; set-up: dose 10 mg/kg, route oral; details: in vivo
[25] = Plasma clearance in mouse at 3 mg/kg, iv or 10 mg/kg, po; assay type: ADME, organism-based
[26] = Plasma concentration in concanavalin A-induced Balb/c mouse at 100 mg/kg, po dosed 2 hrs before concanavalin A challenge; assay type: ADME, organism-based; set-up: dose 100 mg/kg, route oral
Mus musculus [27] = test: Toxicity in DBA/J mouse model of glucose 6-phosphate isomerase-induced athritis at 100 mg/kg, po dosed twice daily for >10 days; assay type: organism-based; set-up: dose 100 mg/kg, route oral; details: in vivo, 240 h
[28] = Plasma concentration in concanavalin A-induced Balb/c mouse at 30 mg/kg, po dosed 2 hrs before concanavalin A challenge; assay type: ADME, organism-based; set-up: dose 30 mg/kg, route oral
[29] = Half life in rat at 1 mg/kg, iv or 3 mg/kg, po; assay type: ADME, organism-based; details: in vivo

T1 sequence (Q04759 whole entry): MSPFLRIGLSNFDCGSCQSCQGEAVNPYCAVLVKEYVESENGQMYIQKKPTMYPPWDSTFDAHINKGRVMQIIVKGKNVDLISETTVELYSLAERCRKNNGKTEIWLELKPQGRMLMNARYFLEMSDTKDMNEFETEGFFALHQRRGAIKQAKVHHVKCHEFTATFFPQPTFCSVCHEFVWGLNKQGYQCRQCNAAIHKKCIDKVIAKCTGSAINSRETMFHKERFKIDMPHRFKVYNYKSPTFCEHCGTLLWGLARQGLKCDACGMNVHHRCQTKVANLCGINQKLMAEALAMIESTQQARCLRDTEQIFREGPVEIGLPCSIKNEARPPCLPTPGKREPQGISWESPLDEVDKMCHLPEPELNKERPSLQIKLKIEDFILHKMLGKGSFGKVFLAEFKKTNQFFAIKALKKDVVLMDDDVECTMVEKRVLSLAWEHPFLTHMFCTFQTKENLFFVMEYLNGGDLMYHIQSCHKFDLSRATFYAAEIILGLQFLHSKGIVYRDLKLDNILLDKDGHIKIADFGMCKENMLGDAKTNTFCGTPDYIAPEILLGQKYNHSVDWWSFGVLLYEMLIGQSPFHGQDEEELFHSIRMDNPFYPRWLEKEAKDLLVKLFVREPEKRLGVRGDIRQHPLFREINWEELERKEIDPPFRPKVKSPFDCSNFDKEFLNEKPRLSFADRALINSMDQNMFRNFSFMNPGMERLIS
Chain of Voltage-gated inwardly rectifying potassium channel KCNH2 (Q12809 whole entry): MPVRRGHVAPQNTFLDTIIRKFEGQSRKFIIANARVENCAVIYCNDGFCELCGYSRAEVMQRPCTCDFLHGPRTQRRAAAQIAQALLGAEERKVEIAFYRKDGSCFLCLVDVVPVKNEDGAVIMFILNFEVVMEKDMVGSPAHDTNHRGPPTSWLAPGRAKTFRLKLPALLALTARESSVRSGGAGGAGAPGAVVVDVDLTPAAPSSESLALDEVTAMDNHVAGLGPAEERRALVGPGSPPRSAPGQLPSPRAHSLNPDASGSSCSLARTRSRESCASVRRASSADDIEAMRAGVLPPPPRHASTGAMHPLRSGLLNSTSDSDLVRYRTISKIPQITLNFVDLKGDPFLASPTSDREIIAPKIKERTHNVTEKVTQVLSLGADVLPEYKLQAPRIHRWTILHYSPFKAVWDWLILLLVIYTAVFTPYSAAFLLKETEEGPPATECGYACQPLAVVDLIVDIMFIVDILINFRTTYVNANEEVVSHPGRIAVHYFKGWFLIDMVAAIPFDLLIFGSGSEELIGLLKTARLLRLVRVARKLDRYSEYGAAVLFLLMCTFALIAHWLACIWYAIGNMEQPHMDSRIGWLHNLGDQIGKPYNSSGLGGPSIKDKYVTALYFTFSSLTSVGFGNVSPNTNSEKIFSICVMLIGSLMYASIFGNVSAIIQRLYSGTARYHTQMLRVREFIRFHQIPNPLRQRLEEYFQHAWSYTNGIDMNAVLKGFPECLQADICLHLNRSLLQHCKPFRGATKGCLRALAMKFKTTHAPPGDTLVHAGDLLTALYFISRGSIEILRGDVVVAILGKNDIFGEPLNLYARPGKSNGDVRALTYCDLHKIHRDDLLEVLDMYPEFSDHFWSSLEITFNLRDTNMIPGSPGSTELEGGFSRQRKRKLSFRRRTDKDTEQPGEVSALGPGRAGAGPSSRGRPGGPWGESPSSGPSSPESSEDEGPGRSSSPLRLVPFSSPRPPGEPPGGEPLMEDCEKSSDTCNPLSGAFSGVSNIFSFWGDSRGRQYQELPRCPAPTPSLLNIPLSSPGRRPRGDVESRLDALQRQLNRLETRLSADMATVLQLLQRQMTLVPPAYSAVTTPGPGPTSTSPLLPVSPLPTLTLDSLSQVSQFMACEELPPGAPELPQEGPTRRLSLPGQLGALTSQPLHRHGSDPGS
Chain of Focal adhesion kinase 1 (Q05397 whole entry): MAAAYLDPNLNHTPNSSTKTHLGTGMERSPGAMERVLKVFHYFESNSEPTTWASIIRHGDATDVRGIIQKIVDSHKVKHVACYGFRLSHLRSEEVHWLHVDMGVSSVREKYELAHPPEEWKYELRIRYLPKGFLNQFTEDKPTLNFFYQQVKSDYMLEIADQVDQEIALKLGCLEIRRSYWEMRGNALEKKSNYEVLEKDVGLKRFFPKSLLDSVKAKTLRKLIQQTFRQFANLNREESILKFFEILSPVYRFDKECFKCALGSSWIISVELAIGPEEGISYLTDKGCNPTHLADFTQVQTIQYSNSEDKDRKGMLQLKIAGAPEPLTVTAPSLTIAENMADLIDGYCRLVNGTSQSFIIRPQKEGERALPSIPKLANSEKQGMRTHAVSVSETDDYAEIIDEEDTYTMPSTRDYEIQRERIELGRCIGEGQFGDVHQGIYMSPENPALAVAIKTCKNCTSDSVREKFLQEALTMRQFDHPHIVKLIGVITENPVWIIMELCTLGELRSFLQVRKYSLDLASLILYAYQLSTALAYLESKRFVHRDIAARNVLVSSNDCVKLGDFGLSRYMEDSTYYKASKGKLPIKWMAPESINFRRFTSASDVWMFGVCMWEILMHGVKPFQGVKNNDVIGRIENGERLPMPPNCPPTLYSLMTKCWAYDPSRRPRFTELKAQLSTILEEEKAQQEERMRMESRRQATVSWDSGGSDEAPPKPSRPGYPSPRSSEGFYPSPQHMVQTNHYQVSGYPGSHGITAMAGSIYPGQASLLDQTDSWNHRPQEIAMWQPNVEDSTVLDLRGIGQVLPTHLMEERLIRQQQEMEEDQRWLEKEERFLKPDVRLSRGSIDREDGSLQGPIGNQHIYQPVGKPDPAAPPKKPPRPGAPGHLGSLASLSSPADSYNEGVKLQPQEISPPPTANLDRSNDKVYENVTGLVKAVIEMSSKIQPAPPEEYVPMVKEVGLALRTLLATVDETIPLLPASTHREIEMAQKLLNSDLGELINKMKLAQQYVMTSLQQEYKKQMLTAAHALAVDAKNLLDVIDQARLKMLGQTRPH

## O=C1CN2C(=NN1)COc1ccccc12
Focal adhesion kinase 1
  IC50: 156 µM
[1]
  IC50: 453 µM
[2]
  IC50: 19 µM
[3]
  IC50: > 50000 nM

## C[C@@H]1C(=O)NN=C2COc3cc(C(F)(F)F)c(NC4(C)CNC4)cc3N21
Mus musculus [4]
  inhibition in vivo at 30 mg/kg: 100%
[5]
  Papp A→B: 1.5 ×10⁻⁶ cm/s
[6]
  fraction unbound: 0.27
[7]
  concentration at 2 h: 37 nM
[8]
  bioavailability: 74%
[9]
  Cmax: 846 ng/mL
[10]
  clearance: 45 mL/min/kg
[11]
  concentration at 2 h: 110 nM
[12]
  bioavailability: 108%
[3]
  IC50: 1700 nM
[13]
  concentration at 2 h: 310 nM
[14]
  AUC: 9260 ng·h/mL
[15]
  AUC: 782 ng·h/mL
[16]
  AUC(0-t): 15100 ng·h/mL
[17]
  half-life: 186 min
[18]
  IC50: > 30 µM
[19]
  CL free: < 3.3 L/h/kg
Mus musculus [20]
  inhibition in vivo at 10 mg/kg: 62%
[21]
  CL free: < 5.7 L/h/kg
[22]
  CL free: < 2 L/h/kg
cells
  IC50: 120 nM
[23]
  Cmax: 160 ng/mL
[24]
  AUC(0-t): 4500 ng·h/mL
[25]
  clearance: 25 mL/min/kg
[26]
  concentration at 2 h: 2500 nM
Mus musculus [27]
  Activity: Toxic
[28]
  concentration at 2 h: 900 nM
[29]
  half-life: 282 min
